ChEMBL document CHEMBL4000220, “Optimization of spirocyclic proline tryptophan hydroxylase-1 inhibitors” (Bioorg Med Chem Lett, 2017)

Tests used:
Rattus norvegicus [1] = assay: Clearance in rat at 1 mg/kg, iv relative to hepatic blood flow; assay type: ADME, organism-based; conditions: in vivo
Rattus norvegicus [2] = assay: (§1) Volume of distribution at steady state in rat at 1 mg/kg, iv; assay type: ADME, organism-based; conditions: in vivo
Rattus norvegicus [3] = assay: (§2) Half life in rat at 1 mg/kg, iv; assay type: ADME, organism-based; conditions: in vivo
[4] = target: T1, Tryptophan 5-hydroxylase 2 (Homo sapiens, UniProt Q8IWU9); assay: Inhibition of TPH2 (unknown origin)
T1 sequence (Q8IWU9 whole entry): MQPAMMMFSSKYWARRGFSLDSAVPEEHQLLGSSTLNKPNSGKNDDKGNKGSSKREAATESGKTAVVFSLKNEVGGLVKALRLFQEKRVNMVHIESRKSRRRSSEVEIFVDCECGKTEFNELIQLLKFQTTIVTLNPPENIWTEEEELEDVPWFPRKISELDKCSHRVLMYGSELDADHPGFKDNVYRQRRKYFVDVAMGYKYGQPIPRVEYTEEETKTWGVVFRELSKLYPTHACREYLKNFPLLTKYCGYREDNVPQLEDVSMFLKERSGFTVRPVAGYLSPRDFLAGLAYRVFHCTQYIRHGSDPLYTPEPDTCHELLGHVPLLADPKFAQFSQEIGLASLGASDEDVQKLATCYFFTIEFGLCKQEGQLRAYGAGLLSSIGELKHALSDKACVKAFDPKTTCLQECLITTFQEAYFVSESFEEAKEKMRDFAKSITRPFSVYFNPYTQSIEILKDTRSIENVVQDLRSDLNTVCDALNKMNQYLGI

[5] = Clearance in beagle dog at 1 mg/kg, iv; assay type: ADME, organism-based, Canis lupus familiaris; conditions: in vivo
Canis familiaris [6] = assay: Clearance in beagle dog at 1 mg/kg, iv relative to hepatic blood flow; assay type: ADME, organism-based, Canis lupus familiaris; conditions: in vivo
[7] = (§3) Half life in beagle dog at 1 mg/kg, iv; assay type: ADME, organism-based, Canis lupus familiaris; conditions: beagle, in vivo
[8] = (§4) Volume of distribution at steady state in beagle dog at 1 mg/kg, iv; assay type: ADME, organism-based, Canis lupus familiaris; conditions: beagle, in vivo, read-out: Vdss
Mus musculus [9] = assay: Drug level in mouse treated with (S)-ethyl 8-(2-amino-6-((R)-1-(5-chlorobiphenyl-2-yl)-2,2,2-trifluoroethoxy)pyrimidin-4-yl)-2,8-diazaspiro[4.5]decane-3-carboxylate at 10 to 50 mg/kg, po administered as single dose; assay type: ADME, organism-based; conditions: in vivo
[10] = target: T2, Tryptophan 5-hydroxylase 1 (Homo sapiens, UniProt P17752)
T2 sequence (P17752 whole entry): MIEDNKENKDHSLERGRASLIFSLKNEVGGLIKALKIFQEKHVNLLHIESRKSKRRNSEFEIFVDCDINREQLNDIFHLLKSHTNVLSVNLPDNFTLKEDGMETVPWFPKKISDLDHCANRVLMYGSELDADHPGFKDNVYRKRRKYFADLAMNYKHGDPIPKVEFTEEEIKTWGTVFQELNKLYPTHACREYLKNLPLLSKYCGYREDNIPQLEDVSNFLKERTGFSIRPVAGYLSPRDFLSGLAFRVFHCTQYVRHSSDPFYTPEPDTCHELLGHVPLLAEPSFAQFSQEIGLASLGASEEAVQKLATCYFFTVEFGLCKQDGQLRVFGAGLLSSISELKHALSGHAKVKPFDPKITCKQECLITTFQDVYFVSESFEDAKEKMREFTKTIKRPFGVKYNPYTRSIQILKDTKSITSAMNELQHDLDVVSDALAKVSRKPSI
Description: Inhibition of TPH1 (unknown origin)

Mus musculus [11] = assay: Drug level in mouse treated with (S)-ethyl 8-(2-amino-6-((R)-1-(5-chloro-3'-(methylsulfonyl)biphenyl-2-yl)-2,2,2-trifluoroethoxy)pyrimidin-4-yl)-2,8-diazaspiro[4.5]decane-3-carboxylate at 10 to 50 mg/kg, po administered as single dose; assay type: ADME, organism-based; conditions: in vivo
Mus musculus [12] = assay: In vivo inhibition of TPH1 in mouse assessed as reduction in 5-HT level in intestinal mucosa at 50 mg/kg, po administered daily as single dose relative to control; assay type: functional
Mus musculus [13] = assay: In vivo inhibition of TPH1 in mouse assessed as reduction in 5-HT level in intestinal mucosa at 10 mg/kg, po administered daily as single dose relative to control; assay type: functional
Mus musculus [14] = assay: Prodrug activation in mouse assessed as (S)-8-(2-amino-6-((R)-1-(5-chloro-3',5'-difluorobiphenyl-2-yl)-2,2,2-trifluoroethoxy)pyrimidin-4-yl)-2,8-diazaspiro[4.5]decane-3-carboxylic acid formation at 10 to 50 mg/kg, po administered as single dose; assay type: organism-based; conditions: in vivo
Mus musculus [15] = assay: Drug level in mouse treated with (S)-ethyl 8-(2-amino-6-((R)-1-(5-chloro-3'-sulfamoylbiphenyl-2-yl)-2,2,2-trifluoroethoxy)pyrimidin-4-yl)-2,8-diazaspiro[4.5]decane-3-carboxylate at 10 to 50 mg/kg, po administered as single dose; assay type: ADME, organism-based; conditions: in vivo
Mus musculus [16] = assay: Prodrug activation in mouse assessed as (S)-8-(2-amino-6-((R)-1-(5-chloro-3'-(trifluoromethyl)biphenyl-2-yl)-2,2,2-trifluoroethoxy)pyrimidin-4-yl)-2,8-diazaspiro[4.5]decane-3-carboxylic acid formation at 10 to 50 mg/kg, po administered as single dose; assay type: organism-based; conditions: in vivo
Mus musculus [17] = assay: Prodrug activation in mouse assessed as (S)-8-(2-amino-6-((R)-1-(5-chloro-3'-methylbiphenyl-2-yl)-2,2,2-trifluoroethoxy)pyrimidin-4-yl)-2,8-diazaspiro[4.5]decane-3-carboxylic acid formation at 10 to 50 mg/kg, po administered as single dose; assay type: organism-based; conditions: in vivo
[18] = Clearance in rat at 1 mg/kg, iv; assay type: ADME, organism-based; conditions: in vivo
[19] = as §1; assay type: ADME, organism-based; conditions: in vivo, read-out: Vdss
Rattus norvegicus [20] = assay: Cmax in rat assessed as (S)-8-(2-amino-6-((R)-1-(5-chlorobiphenyl-2-yl)-2,2,2-trifluoroethoxy)pyrimidin-4-yl)-2,8-diazaspiro[4.5]decane-3-carboxylic acid level at 25 mg/kg, po; assay type: ADME, organism-based; set-up: dose 25 mg/kg, route oral; conditions: in vivo
Rattus norvegicus [21] = assay: AUC (0 to last) in rat assessed as (S)-8-(2-amino-6-((R)-1-(5-chlorobiphenyl-2-yl)-2,2,2-trifluoroethoxy)pyrimidin-4-yl)-2,8-diazaspiro[4.5]decane-3-carboxylic acid level at 25 mg/kg, po; assay type: ADME, organism-based; set-up: dose 25 mg/kg, route oral, time 0 - last; conditions: in vivo
[22] = as §2; assay type: ADME, organism-based; conditions: in vivo
Canis familiaris [23] = assay: as §3; assay type: ADME, organism-based, Canis lupus familiaris; conditions: in vivo
Canis familiaris [24] = assay: as §4; assay type: ADME, organism-based, Canis lupus familiaris; conditions: in vivo
Canis familiaris [25] = assay: Half life in beagle dog assessed as (S)-8-(2-amino-6-((R)-1-(5-chlorobiphenyl-2-yl)-2,2,2-trifluoroethoxy)pyrimidin-4-yl)-2,8-diazaspiro[4.5]decane-3-carboxylic acid level at 1 mg/kg, iv; assay type: ADME, organism-based, Canis lupus familiaris; conditions: in vivo
Canis familiaris [26] = assay: Cmax in beagle dog assessed as (S)-8-(2-amino-6-((R)-1-(5-chlorobiphenyl-2-yl)-2,2,2-trifluoroethoxy)pyrimidin-4-yl)-2,8-diazaspiro[4.5]decane-3-carboxylic acid level at 25 mg/kg, po; assay type: ADME, organism-based, Canis lupus familiaris; set-up: dose 25 mg/kg, route oral; conditions: in vivo
Canis familiaris [27] = assay: AUC (0 to last) in beagle dog assessed as (S)-8-(2-amino-6-((R)-1-(5-chlorobiphenyl-2-yl)-2,2,2-trifluoroethoxy)pyrimidin-4-yl)-2,8-diazaspiro[4.5]decane-3-carboxylic acid level at 25 mg/kg, po; assay type: ADME, organism-based, Canis lupus familiaris; set-up: dose 25 mg/kg, time 0 - last, route oral; conditions: in vivo
Mus musculus [28] = assay: Prodrug activation in mouse assessed as (S)-8-(2-amino-6-((R)-1-(5-chlorobiphenyl-2-yl)-2,2,2-trifluoroethoxy)pyrimidin-4-yl)-2,8-diazaspiro[4.5]decane-3-carboxylic acid formation at 10 to 50 mg/kg, po administered as single dose; assay type: organism-based; conditions: in vivo

Nc1nc(O[C@H](c2ccc(Cl)cc2-c2ccccc2)C(F)(F)F)cc(N2CCC3(CC2)CN[C@H](C(=O)O)C3)n1 [RODATRISTAT]
CL (Rattus norvegicus [1]): 1.2% | Vdss (Rattus norvegicus [2]): 7.8 L/kg | t1/2 (Rattus norvegicus [3]): 12.1 h | IC50 [4]: 7 nM | clearance [5]: 1.2 mL/min/kg | CL (Canis familiaris [6]): 4% | half-life [7]: 4.8 h | Vd [8]: 0.24 L/kg | Drug metabolism (Mus musculus [9]): Metabolite_Detected | IC50 [10]: 33 nM

CS(=O)(=O)c1cccc(-c2cc(Cl)ccc2[C@@H](Oc2cc(N3CCC4(CC3)CN[C@H](C(=O)O)C4)nc(N)n2)C(F)(F)F)c1
Drug metabolism (Mus musculus [11]): Metabolite_Detected | IC50 [10]: 14 nM

CCOC(=O)[C@@H]1CC2(CCN(c3cc(O[C@H](c4ccc(Cl)cc4-c4cc(F)cc(F)c4)C(F)(F)F)nc(N)n3)CC2)CN1
inhibition in vivo at 50 mg/kg (Mus musculus [12]): 37% | inhibition in vivo at 10 mg/kg (Mus musculus [13]): 30% | Drug metabolism (Mus musculus [14]): Metabolite_Detected

Nc1nc(O[C@H](c2ccc(Cl)cc2-c2cccc(S(N)(=O)=O)c2)C(F)(F)F)cc(N2CCC3(CC2)CN[C@H](C(=O)O)C3)n1
Drug metabolism (Mus musculus [15]): Metabolite_Detected | IC50 [10]: 11 nM

CCOC(=O)[C@@H]1CC2(CCN(c3cc(O[C@H](c4ccc(Cl)cc4-c4cccc(C(F)(F)F)c4)C(F)(F)F)nc(N)n3)CC2)CN1
inhibition in vivo at 50 mg/kg (Mus musculus [12]): 64% | inhibition in vivo at 10 mg/kg (Mus musculus [13]): 31% | Drug metabolism (Mus musculus [16]): Metabolite_Detected

CCOC(=O)[C@@H]1CC2(CCN(c3cc(O[C@H](c4ccc(Cl)cc4-c4cccc(C)c4)C(F)(F)F)nc(N)n3)CC2)CN1
inhibition in vivo at 50 mg/kg (Mus musculus [12]): 54% | inhibition in vivo at 10 mg/kg (Mus musculus [13]): 24% | Drug metabolism (Mus musculus [17]): Metabolite_Detected

CCOC(=O)[C@@H]1CC2(CCN(c3cc(O[C@H](c4ccc(Cl)cc4-c4ccccc4)C(F)(F)F)nc(N)n3)CC2)CN1 [RODATRISTAT ETHYL]
inhibition in vivo at 50 mg/kg (Mus musculus [12]): 71% | clearance [18]: 106 mL/min/kg | CL (Rattus norvegicus [1]): > 100% | Vd [19]: 12.7 L/kg | Cmax (Rattus norvegicus [20]): 722 ng/mL | AUClast (Rattus norvegicus [21]): 5374 ng·h/mL | half-life [22]: 3.18 h | CL (Canis familiaris [6]): 46% | t1/2 (Canis familiaris [23]): 5.05 h | Vdss (Canis familiaris [24]): 2.34 L/kg | t1/2 (Canis familiaris [25]): 7.59 h | Cmax (Canis familiaris [26]): 2797 ng/mL | AUClast (Canis familiaris [27]): 32398 ng·h/mL | inhibition in vivo at 10 mg/kg (Mus musculus [13]): 55% | Drug metabolism (Mus musculus [28]): Metabolite_Detected
